# Entries after “also recorded” stand apart in the source; their conditions may differ.
# Tests used:
# [1] = tested on: infarction-surgery rats (ligation of the left coronary artery, heart insufficiency); assay: Echocardiography, furosemide-study; format: in vivo, Wistar rat
# Protocol: (§1) Groups A, B and C of the infarction animals received furosemide (Lasix® 250 mg ampoule, Aventis Pharma GmbH, Frankfurt am Main, Germany) starting from day 18 (±2 days) for the whole study in a concentration of 8.6 mg/100 ml in drinking water. This corresponds to an initial dosage of 10 mg/kg/d at a weight of 300 g and an amount of drinking water of 35 ml/d.
# Between week 28 and 30 post surgery (corresponds to week 22 to 24 in the megestrol acetate-Study or week 25 to 27 in the diuretic study), the heart function of all rats still alive was examined by echocardiography. For this, each rat was first pre-anaesthetised using isoflurane (Curamed Pharma GmbH Karlsruhe, Germany) in a chamber of the anaesthetic unit Univentor 400 Anaesthesia Unit (Agn Tho's, Lidingö, Sweden) pre-anaesthetised and subsequently maintained by using a mask. For the echocardiography examination the thorax region was shaved and the rat was fixed in a position lying on the back. The echocardiography was performed with an Acuson-Sequoia C256 (Siemens, Germany) which was equipped with a 15 MHz sonication head suitable for rat- and mouse echocardiography. The left ventricle (LV) was adjusted in the parastemal long and short axis. […] The diastolic function was evaluated based on the LV-influx profile via the mitral valve (E/A-ratio) by means of a PW-Doppler. The measurement volume of the PW-doppler was placed at the tip of the opened mitral valve flap. The measurements were performed by an independent blinded researcher. In FIG. 1 the progression of weight for all groups is depicted.
# (§2) The infarction-furosemide-group corresponds to the blinded infarction-placebo-group of the megestrol acetate-Study (here: infarction-furosemide-group). An additional infarction-surgery group received simple drinking water without furosemide and served as control group for the furosemide-study (here: infarction-placebo-group). In order to expose all animals to equal conditions, in this group the furosemide-study was gavaged unblinded with placebo. A further group is the sham-placebo-group, that corresponds to the blinded sham-placebo-group of the megestrol acetate-study (here: sham-placebo-group).
# [2] = Progression of weight, furosemide-study; format: in vivo, Wistar rat
# Protocol: During the progression of both studies, the animals were weight-determined twice a week, starting from the date of surgery (laboratory balance model CS2000. Ohaus Corporation, Pine Brook, N.J., USA). The results were calculated corresponding to the post-surgical day of the respective animal.
# as §1
# Animals from the infarction-placebo group (without furosemide) and all sham-animals received drinking water without supplementation.
# as §2
# Like in the megestrol acetate-study, the weight values corresponding to the day post-surgery of the respective animal were compared, but this time the data was analysed as a change of weight starting from the beginning of therapy of the furosemide-study (18th day post-surgery=day 0 of the furosemide-study). This therefore results in a 26 days longer period of observation for the diuretic-study in comparison with the megestrol acetate-study. Furosemide was given until the end of the observation period and to removal of organs, respectively.
# [3] = infarction-furosemide-group, furosemide via drinking water, placebo in the gavage
smiles,measurement,setting,value
NS(=O)(=O)c1cc(C(=O)O)c(NCc2ccco2)cc1Cl [furosemide],effect on the echocardiographically determined heart function,[1]; infarction groups with vs. without furosemide,no differences; also recorded: no direct effect
same,A,[1]; [3],0.62 ± 0.05 m/s
same,E,[1]; [3],0.84 ± 0.03 m/s
same,E:A,[1]; [3],1.61 ± 0.21
same,FS,[1]; [3],15.1 ± 1.0 %
same,IVS d,[1]; [3],0.13 ± 0.03 cm
same,LVEDD,[1]; [3],1.06 ± 0.02 cm
same,LVEF,[1]; [3],35.5 ± 2.0 %
same,LVESD,[1]; [3],0.90 ± 0.02 cm
same,LVHW d,[1]; [3],0.17 ± 0.01 cm
same,increase of weight over the whole period of time,[2]; infarction-furosemide-group,1.4 g/day
same,weight at the end of the observation period,[2]; infarction-furosemide-group,583 ± 12 g
same,weight gained at the end of the observation period,[2]; infarction-furosemide-group,81%
same,mean weight at the beginning of the diuretic-study,"[2]; infarction-furosemide-group, day 18 following surgery",322 ± 3 g
same,progress of weight in comparison with the placebo-group with infarction,"[2]; starting from day 105 after beginning of therapy, significant",less pronounced progress

# — patent publication US8383612B2, “Use of megestrol acetate for improving heart function and the treatment of heart insufficiency” (Par Pharmaceuticals, Inc., priority 2004, dated 2013)
